In patent US20240254119A1 (THIRD HARMONIC BIO, INC., priority 2022, published 2024):

Experiments:
[1] = target: T1, BCRP (BCRP-MDCKII monolayer) (Homo sapiens, UniProt Q9UNQ0); experiment: MDCKII-BCRP bidirectional transport assay; format: in vitro ADME; conditions: for MDCK-BCRP: Papp A-B: apical to basolateral
T1 construct: host or cells: MDCKII (canine kidney) cells
T1 sequence (Q9UNQ0 1-655): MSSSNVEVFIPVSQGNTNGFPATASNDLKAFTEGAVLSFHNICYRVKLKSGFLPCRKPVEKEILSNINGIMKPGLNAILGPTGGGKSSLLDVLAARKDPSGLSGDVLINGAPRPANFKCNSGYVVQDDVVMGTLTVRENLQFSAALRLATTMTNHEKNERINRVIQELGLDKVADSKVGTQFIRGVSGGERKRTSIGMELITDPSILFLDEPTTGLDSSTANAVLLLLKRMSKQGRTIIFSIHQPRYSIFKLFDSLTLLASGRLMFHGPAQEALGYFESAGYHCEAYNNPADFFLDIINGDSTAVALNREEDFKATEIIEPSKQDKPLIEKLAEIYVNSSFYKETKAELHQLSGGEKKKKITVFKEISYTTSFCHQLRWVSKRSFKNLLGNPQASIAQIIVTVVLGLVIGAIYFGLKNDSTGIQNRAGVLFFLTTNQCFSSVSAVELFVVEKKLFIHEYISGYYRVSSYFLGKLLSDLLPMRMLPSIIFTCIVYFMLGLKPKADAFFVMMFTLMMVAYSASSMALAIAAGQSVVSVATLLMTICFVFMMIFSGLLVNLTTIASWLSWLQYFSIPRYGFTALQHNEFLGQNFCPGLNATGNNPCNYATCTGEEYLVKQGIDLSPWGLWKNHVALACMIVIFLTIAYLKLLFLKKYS
Procedure: Exemplary compounds were tested for cell permeability in Caco-2, MDCKII-MDR1 and MDCKII-BCRP cell lines with efflux transporter engagement inferred from the efflux ratios determined. Procedures and results are described below. […] This feature of certain compounds is in part due to efflux transporter engagement. See, for instance, exemplary such compounds included in data tables below.
The reference compound Teriflunomide and test compounds are tested in the bidirectional assay. Test compound and reference compounds incubations were tested in duplicates.
The transport assay can be performed between days 12 to day 15 using ready to use PreadyPort™ BCRP-MDCKII monolayer in 96 well plate.
The medium was aspirated from the apical and basal compartments and 75 and 235 μL assay buffer was added to each of the 96 wells of apical and basal compartments of the PreadyPort™ plate.
The plates were pre-incubated for 15 min at 37° C. with 5% CO2 in humidified atmosphere. After preincubation the assay buffer was removed from the apical and basal inserts of the plate.
In apical to basolateral (A→B) transport, 75 μL of test or reference compound working solution to apical inserts and 235 μL of blank assay buffer were added to the corresponding basal compartments.
In basolateral to apical transport, 235 μL of test or reference compound working solution to the basal compartments and 75 μL of blank assay buffer solution were added to corresponding apical inserts.
The sandwich plate was incubated for 120 min in incubator at 5% CO2 and 37° C.
After incubation, 60 μL was transferred from receiver and donor compartments to collection plate.
For donor and C0 samples 20-fold dilution was accomplished by mixing 60 μL of collected sample with 1140 μL of transport buffer and from that solution aliquot 60 μL transfer Both receiver and donor samples were processed by adding […] of acetonitrile containing internal standard (60 μL of sample+240 μL of acetonitrile containing glyburide as internal standard, 125 ng/mL) and vortexing the samples. The compound concentration was measured in all samples using respective calibration standards by LC-MS/MS.
Calculate the Papp and recovery using the given formula:
[formula] [formula] • Where: dQ/dt=Permeability rate in μM/see • C0=Initial concentration in μM • A=Membrane surface area (0.33 cm^2) • V=Volume of receiver chamber • Cend, a=concentration in acceptor well at end of incubation • Cend, d=concentration in donor well at end of incubation • CHBSS=loading concentration measured in HBSS

wtKIT = target: T2, wtKIT (Homo sapiens, UniProt P10721); experiment: Caliper biochemical assay, wtKIT; conditions: Table 6, read-out: KIT Biochemical IC50 avg
T2 construct: 1888289AM in the reaction mixtures
T2 sequence (P10721 26-976): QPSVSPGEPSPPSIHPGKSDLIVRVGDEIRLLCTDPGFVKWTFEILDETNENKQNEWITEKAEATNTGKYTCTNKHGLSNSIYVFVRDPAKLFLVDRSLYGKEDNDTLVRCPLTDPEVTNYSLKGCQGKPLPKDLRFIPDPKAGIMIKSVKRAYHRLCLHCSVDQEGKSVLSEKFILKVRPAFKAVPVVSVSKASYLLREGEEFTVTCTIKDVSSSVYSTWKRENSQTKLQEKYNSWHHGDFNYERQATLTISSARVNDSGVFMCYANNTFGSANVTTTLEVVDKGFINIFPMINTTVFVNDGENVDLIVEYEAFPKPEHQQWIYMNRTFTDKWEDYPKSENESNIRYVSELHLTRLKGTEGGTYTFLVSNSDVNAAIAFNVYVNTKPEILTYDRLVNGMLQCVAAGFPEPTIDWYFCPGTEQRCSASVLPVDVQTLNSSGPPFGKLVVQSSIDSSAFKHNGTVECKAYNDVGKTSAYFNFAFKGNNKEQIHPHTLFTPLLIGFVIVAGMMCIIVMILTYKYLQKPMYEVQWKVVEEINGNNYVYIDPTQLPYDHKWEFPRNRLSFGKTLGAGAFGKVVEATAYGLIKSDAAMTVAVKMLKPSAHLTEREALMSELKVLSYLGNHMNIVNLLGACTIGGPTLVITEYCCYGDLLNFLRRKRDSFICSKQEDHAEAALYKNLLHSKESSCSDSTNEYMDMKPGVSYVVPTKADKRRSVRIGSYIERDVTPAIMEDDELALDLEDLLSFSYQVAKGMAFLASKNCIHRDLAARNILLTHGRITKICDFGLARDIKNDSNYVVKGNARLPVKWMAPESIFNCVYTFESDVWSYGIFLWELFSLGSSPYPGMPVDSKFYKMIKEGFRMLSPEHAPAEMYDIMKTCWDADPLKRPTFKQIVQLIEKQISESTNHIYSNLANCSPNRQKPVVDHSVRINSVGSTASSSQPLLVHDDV
Procedure: Enzyme, substrate, and cofactors (ATP and Mn^2+) are combined in a well of a microtiter plate and incubated for 3 hours at 25° C. At the end of the incubation, the reaction is quenched by the addition of an EDTA-containing buffer. Substrate and product are separated electrophoretically using the microfluidic-based LabChip 3000 Drug Discovery System from Caliper Life Sciences* and quantitated by fluorescence intensity.
The substrate used in the CSF-1R and PDGFRα assay is FAM-[…]-CONH2 (FAM is carboxyfluorescein). Peptide should be >95% purity. The substrate for the KIT assay is FAM-[…]-NH2.
• 1. To a well of a 384-well plate add 5 μL of 2× enzyme buffer (or control) • 2. Add 100 nL of 100× compound. • 3. Add 5 μL of 2× substrate buffer. • 4. Incubate plate at 25° C. for 3 hours. • 5. Add 10 uL of […]. • 6. Read plate LabChip 3000 Drug Discovery System
• 3 hours at 25° C. where 100% Inhibitor: No enzyme.
• 100 mM HEPES, pH 7.5 0.1% BSA • 0.01% Triton X-100 • 1 mM DTT • 10 mM MnCl2 • 10 μM Sodium Orthovanadate • 10 μM Beta-Glycerophosphate • 400 μM ATP • 1% DMSO (from compound) • 1 μM FAM-[…]-CONH2 5.0 nM wtKIT Enzyme (1888289AM)* • *Specific activity may vary from lot to lot. Enzyme concentration may need to be adjusted to yield 10-20% conversion of substrate to product.

Kinetic solubility assay = format: physicochemical; conditions: kinetic solubility, 50 mM PB (pH 7.4), shaken 24 hours at RT
Outline: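 Concentration in the filtrate was determined by UPLC-UV or HPLC-UV with a standard curve. Before that, compound (10 mM DMSO stock) in 50 mM PB at pH 7.4 was agitated 24 h at room temperature, then PTFE-filtered with centrifugation.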

SMILES	MDCK-BCRP: Efflux Ratio [1]	MDCK-BCRP: Papp A-B [1]	IC50 (wtKIT) [nM]	Solubility (μM) (Kinetic solubility assay)
Cc1ccc(-c2noc(C3CCCN3)n2)cc1NC(=O)c1cnc2ccccn12 (racemic) [Compound I-391]	12.1	2.13 10^−6 cm/s	≤ 50	* (a solubility greater than 50 μM)
Cc1ccc(-c2noc(C3CCN3C(=O)OC(C)(C)C)n2)cc1NC(=O)c1cnc2ccccn12 (racemic) [Compound I-395]	3.28	19 10^−6 cm/s	50 to 500	** (a solubility greater than 10 μM and less than or equal to 50 μM)
Cc1ccc(-c2noc(C3CCCCO3)n2)cc1NC(=O)c1cnc2ccccn12 (racemic) [Compound I-397]	2.83	8.04 10^−6 cm/s	≤ 50	*** (a solubility greater than 2 μM and less than or equal to 10 μM)
Cc1ccc(-c2noc(C3CCN(C(=O)OC(C)(C)C)C3)n2)cc1NC(=O)c1cnc2ccccn12 (racemic) [Compound I-399]	2.78	6.48 10^−6 cm/s	50 to 500	*** (a solubility greater than 2 μM and less than or equal to 10 μM)
Cc1ccc(-c2noc(C3CN(C(N)=O)C3)n2)cc1NC(=O)c1cnc2ccccn12 [Compound I-268]	11.6	0.31 10^−6 cm/s	50 to 500	* (a solubility greater than 50 μM)
Cc1ccc(-c2noc([C@H]3C[C@@H]3F)n2)cc1NC(=O)c1cnc2cc(Nc3c(C)cccc3C)ccn12 [Compound I-293]	4.55	0.02 10^−6 cm/s	50 to 500	*** (a solubility greater than 2 μM and less than or equal to 10 μM)
CCOC1CC(c2nc(-c3ccc(C)c(NC(=O)c4cnc5ccccn45)c3)no2)C1 (stereo not drawn) [Compound I-310]	0.81	12 10^−6 cm/s	50 to 500	**** (a solubility less than or equal to 2 μM)
CC(C)(C)OC(=O)N1CC(c2nc(-c3ccc(Br)c(NC(=O)c4cnc5ccccn45)c3)no2)C1 [Compound I-332]	1.75	2.63 10^−6 cm/s	50 to 500	**** (a solubility less than or equal to 2 μM)
COC(=O)N1CC(c2nc(-c3ccc(Br)c(NC(=O)c4cnc5ccccn45)c3)no2)C1 [Compound I-338]	0.82	23.1 10^−6 cm/s	≤ 50	**** (a solubility less than or equal to 2 μM)
COC(=O)C1CC(c2nc(-c3ccc(C)c(NC(=O)c4cnc5ccccn45)c3)no2)C1 (stereo not drawn) [Compound I-342]	0.47	30 10^−6 cm/s	≤ 50	*** (a solubility greater than 2 μM and less than or equal to 10 μM)
Cc1ccc(-c2noc(C3CC4(COCCO4)C3)n2)cc1NC(=O)c1cnc2ccccn12 (stereo not drawn) [Compound I-343]	2.36	8.04 10^−6 cm/s	≤ 50	** (a solubility greater than 10 μM and less than or equal to 50 μM)
COC1(OC)CC(c2nc(-c3ccc(C)c(NC(=O)c4cnc5ccccn45)c3)no2)C1 [Compound I-346]	1.33	40.1 10^−6 cm/s	≤ 50	*** (a solubility greater than 2 μM and less than or equal to 10 μM)
Cc1ccc(-c2noc(C3CC(O)(c4ccccc4)C3)n2)cc1NC(=O)c1cnc2ccccn12 (stereo not drawn) [Compound I-349]	2.56	16.6 10^−6 cm/s	≤ 50	**** (a solubility less than or equal to 2 μM)
COC1CC(c2nc(-c3ccc(C)c(NC(=O)c4cnc5ccccn45)c3)no2)C1 (stereo not drawn) [Compound I-350]	1.52	8.86 10^−6 cm/s	≤ 50	** (a solubility greater than 10 μM and less than or equal to 50 μM)
CSCC1(c2nc(-c3ccc(C)c(NC(=O)c4cnc5ccccn45)c3)no2)CC(F)(F)C1 [Compound I-354]	1.03	7.97 10^−6 cm/s	≤ 50	**** (a solubility less than or equal to 2 μM)
Cc1ccc(-c2noc(C3(C(F)F)CC(F)(F)C3)n2)cc1NC(=O)c1cnc2ccccn12 [Compound I-355]	0.91	12.3 10^−6 cm/s	≤ 50	**** (a solubility less than or equal to 2 μM)
Cc1ccc(-c2noc(C3CC(O)(C4(O)CCC4)C3)n2)cc1NC(=O)c1cnc2ccccn12 (stereo not drawn) [Compound I-357]	63.9	0.47 10^−6 cm/s	50 to 500	*** (a solubility greater than 2 μM and less than or equal to 10 μM)
COC(=O)C1CC(c2nc(-c3ccc(C)c(NC(=O)c4cnc5ccccn45)c3)no2)C1 (stereo not drawn) [Compound I-366]	1.31	10.2 10^−6 cm/s	≤ 50	**** (a solubility less than or equal to 2 μM)
COCC1(c2nc(-c3ccc(C)c(NC(=O)c4cnc5ccccn45)c3)no2)CC(F)(F)C1 [Compound I-378]	0.77	16 10^−6 cm/s	≤ 50	**** (a solubility less than or equal to 2 μM)
Cc1ccc(-c2noc(C3(C)CC(F)(F)C3)n2)cc1NC(=O)c1cnc2ccccn12 [Compound I-385]	1.05	14.3 10^−6 cm/s	≤ 50	**** (a solubility less than or equal to 2 μM)
Cc1ccc(-c2noc(C3(C)CC(F)C3)n2)cc1NC(=O)c1cnc2ccccn12 (stereo not drawn) [Compound I-386]	1.56	11.4 10^−6 cm/s	≤ 50	**** (a solubility less than or equal to 2 μM)
